Test results as given in paper PMC8451667 (Emerging Microbes & Infections, 2021).
Read-outs that look alike come from different tables or passages of the source.

Tests used:
[1] = tested on: A/California/04/2009 (H1N1) Ca/04; assay: microbe, parasite or virus in culture; format: cell-based; conditions: Influenza A virus
[2] = tested on: Ca/04 OsR (A/California/04/2009 (H1N1)-H275Y); design: species or system mice; conditions: mouse, in vivo
[3] = tested on: A/California/07/2009 (H1N1); assay: microbe, parasite or virus in culture; format: cell-based, Influenza A virus
[4] = H1N1, read-out: EC50 (μM), A/California/04/2009 (H1N1) Ca/04

Row | Compound | EC50 ([1]; H1N1, read-out: EC50 (nM), A/California/04/2009 (H1N1) Ca/04) [nM] | Body weight loss [2] [%] | Survival [2] [%] | EC50 [1, 4] [nM] | EC50 increase at passage 6 [3] [fold] | EC50 ([3]; Influenza A virus, H1N1, read-out: EC50 (μM), serial passage) [µM] | Clinical signs ([2]; ip)
1 | CCC(CC)O[C@@H]1C=C(C(=O)O)C[C@H](N)[C@H]1NC(C)=O [Oseltamivir carboxylate] | 1.4 ± 0.32 | – | – | – | – | – | –
2 | CCOC(=O)C1=C[C@@H](OC(CC)CC)[C@H](NC(C)=O)[C@@H](N)C1 [Oseltamivir, Oseltamivir phosphate, reference compound] | – | ~20 | 16 | – | – | – | –
3 | NC12CC3CC(CC(C3)C1)C2 [Amantadine] | – | – | – | > 20000 | – | – | –
4 | [2H]C(NC12CC3CC(CC(O)(C3)C1)C2)c1ccc(I)s1 (stereo not shown) [UAWJ280, 3-{[(5-iodothiophen-2-yl)(D)methyl]amino}adamantan-1-ol] | – | ~15 | 65 | 270 ± 40 | 7 | 0.27 | mild clinical signs
